Assay results published in US8889713B1, “N-substituted tetrahydroisoquinoline benzamides/benzene sulfonamides as anti-cancer agents” (Florida A&M University, priority 2013, dated 2014).
≈ marks a conversion by molar mass, not a printed value.

Tests used:
Format in all cases: cell-based
[1] = system: MCF-7 estrogen receptor-positive breast cancer cells; experiment: […]-GLO luminescent cell viability assay, MCF-7; settings: Homo sapiens, MCF7, MCF-7, 72 h at 37° C., 5000 cells/well
Experimental: (§1) All the compounds were tested in the three cell lines. Different concentrations of compounds, ranging from about 0.01 nM to about 100,000 nM were delivered to […] cells per well, which were then incubated for three days at 37° C., followed by CTG assay.
(§2) In this assay, the number of viable cells in culture is determined based on the quantification of ATP present, which signals the presence of metabolically active cells. Damaged cells are not detected as the ATP leaked from these cells is quickly consumed by ATPases that are also released upon damage). The amount of ATP is determined using a system based on luciferase and D-luciferin resulting in light generation.
(§3) The cell lines were plated in 13, 96 well plates at a density of 5000 cells/well in total volumes of 50 μL in phenol-red free medium and incubated for overnight.
(§4) 25 μL of 40 nM estradiol should be added to all appropriate wells on the plate. […] 25 μL of stocks (containing the compounds to be tested, DMSO and phenol-red free medium) were added to cells and medium already on plate. 50 μL of medium were added to media wells, and 50 μL of mix (contain 32 mL DMSO+768 mL phenol-red free medium) to all vehicle control wells.
(§5) Luminescence results were read on TriLux Luminometer. The luminescent signal is proportional to the number of active cells present in culture. […] As a consequence, the number of metabolically active cells can be directly derived from the luminescent signal using a specific calibration curve. Data were expressed as percentage of untreated control (i.e. treatment value-blank/vehicle value blank), mean±SE for three replications.

Ishikawa cells = experiment: […]-GLO luminescent cell viability assay, Ishikawa; settings: Homo sapiens, 72 h at 37° C., 5000 cells/well
Experimental: as §1, §2, §3, §4, §5

[2] = system: MDA-MB-231 estrogen receptor-negative breast cancer cell line; experiment: […]-GLO luminescent cell viability assay, MDA-MB-231; settings: Homo sapiens, MDA-MB-231, 72 h at 37° C., 5000 cells/well
Experimental: as §1, §2, §3, §4, §5

Row | SMILES | IC50 [1] [µg/mL] | IC50 [2] [µg/mL] | IC50 (Ishikawa cells) [µg/mL]
1 | CCc1ccc(C(=O)NN2CCc3c(Br)ccc(Br)c3C2)cc1 [Redda-EVK-I-079, N-(5,8-Dibromo-3,4-dihydroisoquinolin-2(1H)-yl)-4-ethylbenzamide] | 2.34 (≈ 5.34 µM) | 1.71 (≈ 3.9 µM) | 0.84 (≈ 1.92 µM)
2 | CCCc1ccc(C(=O)NN2CCc3ccccc3C2)cc1 [Redda-GM-3-122, N-(3,4-Dihydroxyisoquinolin-2(1H)-yl)-4-propylbenzamide] | 3.71 (≈ 12.6 µM) | 3.26 (≈ 11.1 µM) | 0.75 (≈ 2.55 µM)
3 | O=C(NN1CCc2ccccc2C1)c1ccc(Br)cc1 [Redda-GM-3-135, 4-Bromo-N-(3,4-dihydroisoquinolin-2(1H)-yl)benzamide] | 0.7 (≈ 2.11 µM) | 4.34 (≈ 13.1 µM) | 0.02 (≈ 0.0604 µM)
4 | O=C(NN1CCc2ccccc2C1)c1ccc(C(F)(F)F)cc1 [Redda-GM-3-143, N-(3,4-Dihydroisoquinolin-2-(1H)-yl)-4-(trifluoromethyl)benzamide] | 3.15 (≈ 9.83 µM) | 4.85 (≈ 15.1 µM) | 0.5 (≈ 1.56 µM)
5 | CCCCc1ccc(C(=O)NN2CCc3ccccc3C2)cc1 [Redda-GM-3-156, 4-Butyl-N-(3,4-dihydrozyisoquinolin-2(1H)-yl)benzamide] | 3.05 (≈ 9.89 µM) | 7.03 (≈ 22.8 µM) | 0.96 (≈ 3.11 µM)
6 | O=C(NN1CCc2ccccc2C1)c1nc2ccccc2s1 [Redda-GM-3-177, N-(3,4-Dihydroisoquinolin-2-(1H)-yl)benzo[d]thiazole-2-carboxamide] | 15 (≈ 48.5 µM) | 13.1 (≈ 42.4 µM) | 8.98 (≈ 29 µM)
7 | CC(C)(C)c1ccc(C(=O)NN2CCc3ccc(O)cc3C2)cc1 [Redda-GM-4-40, 4-(tert-Butyl)-N-(7-hydroxy-3,4-dihydroisoquinolin-2(1H)-yl)benzamide] | 2.3 (≈ 7.09 µM) | 4.7 (≈ 14.5 µM) | 0.95 (≈ 2.93 µM)

Now from value to compound, other results behind:

Row | IC50 [1] [µg/mL] | IC50 [2] [µg/mL] | SMILES | IC50 (Ishikawa cells) [µg/mL]
8 | 7.38 (≈ 23.8 µM) | 10.5 (≈ 33.7 µM) | CCc1ccc(C(=O)NN2CCc3c(cccc3OC)C2)cc1 [Redda-EVK-I-062, 4-Ethyl-N-(5-methoxy-3,4-dihydroisoquinolin-2(1H)-yl)benzamide] | 6.34 (≈ 20.4 µM)
9 | 0.25 (≈ 0.805 µM) | 0.23 (≈ 0.741 µM) | CCc1ccc(C(=O)NN2CCc3ccc(OC)cc3C2)cc1 [Redda-EVK-I-074, 4-Ethyl-N-(7-methoxy-3,4-dihydroisoquinolin-2(1H)-yl)benzamide] | 0.11 (≈ 0.354 µM)
10 | 0.43 (≈ 1.53 µM) | 0.37 (≈ 1.32 µM) | CCc1ccc(C(=O)NN2CCc3ccccc3C2)cc1 [Redda-GM-3-121, N-(3,4-Dihydroisoquinolin-2(1H)-yl)-4-ethylbenzamide] | 0.01 (≈ 0.0357 µM)
11 | 0.2 (≈ 0.675 µM) | 0.13 (≈ 0.439 µM) | CCc1ccc(C(=O)NN2CCc3ccc(O)cc3C2)cc1 [Redda-GM-4-53, 4-Ethyl-N-(7-hydroxy-3,4-dihydroisoquinolin-2-(1H)-yl)benzamide] | 0.08 (≈ 0.27 µM)
12 | 3.5 (≈ 9.74 µM) | 6.01 (≈ 16.7 µM) | CCc1ccc(C(=O)NN2CCc3c(Br)cccc3C2)cc1 [Redda-GM-4-62, N-(5-Bromo-3,4-dihyroisoquinolin-2(1H)-yl)-4-ethylbenzamide] | 1.15 (≈ 3.2 µM)
